Experimental data: patent US20150051232A1, “USE OF (RS)-S-CYCLOPROPYL-S-(4--5-(TRIFLUOROMETHYL)PYRIMIDIN-2-YL]AMINO}PHENYL)SULFOXIMIDE FOR TREATING SPECIFIC TUMOURS” (Bayer Intellectual Property GmbH, priority 2012, published 2015)

How the values were obtained:
Assay type in all cases: in vivo, humans
mesotheliomas = assay: Clinical trial in patients with mesotheliomas; conditions: 3 days of treatment and 4 days of non-treatment; for duration of treatment (until disease progression) / tumour response according to RECIST 1.1: oral solution
Source text: Patient 1010, epithelioid mesothelioma, progressive disease on study enrollment, systemic pre-therapies with Alimta and cisplatin, gemcitabine, doxorubicin, dekabine
Patient 1016, epithelioid mesothelioma, stage IV, progressive disease on study enrollment, systemic pre-therapies with Alimta and cisplatin, Alimta and carboplatin, Alimta and carboplatin and Avastin, Avastin, Alimta, gemcitabine
Patient 1023, pleuramesothelioma, stage IV, progressive disease on study enrollment, systemic pre-therapies with cisplatin and Alimta
Patient 1024, pleuramesothelioma, stage IV, progressive disease on study enrollment, systemic pre-therapies with cisplatin and Alimta and Avastin, Avastin, carboplatin and Alimta and doxorubicin and dekapine
Oral solution in two dose strengths, ingredients micronized BAY 1000394 (0.2 mg/ml and 4.8 mg/ml), Levomenthol (synonym: 1-menthol, flavouring), macrogol (400) (synonym: polyethylene glycol (400), solubilizer), polysorbate 20 (surfactant)
Dosage twice a day 1.2 mg (patient 1010), 4.8 mg (patient 1016) and 9.6 mg (patients 1023 and 1024), administration protocol 3 days of treatment and 4 days of non-treatment, long-term treatment until disease progression

[1] = tested on: cholangiocellular carcinoma; assay: Clinical trial in a patient with cholangiocellular carcinoma; conditions: 3 days of treatment and 4 days of non-treatment
Method: Patient 1026, cholangiocellular carcinoma stage IV, progressive disease on study enrollment, systemic pre-therapies with cisplatin/oxaliplatin and Gemzar, 5-fluorouracil and folinic acid
tablet, ingredients BAY 1000394, micronized, 5 mg/tablet, granulated mannitol (filler), microcrystalline cellulose (filler), croscarmellose (disintegrant), magnesium stearate (additive for pressing), red lacquer (coating)
Dosage twice a day 5 mg, administration protocol 3 days of treatment and 4 days of non-treatment, long-term treatment until disease progression

[2] = tested on: squamous cell carcinoma of the oesophagus; assay: Clinical trial in a patient with squamous cell carcinomas of the oesophagus; conditions: 28 days of treatment and 14 days of non-treatment
Method: Patient 3002, squamous cell carcinoma of the oesophagus stage IV, progressive disease on study enrollment, systemic pre-therapy with cisplatin and Xeloda
Oral solution, ingredients micronized BAY 1000394 (0.2 mg/ml), levomenthol (synonym: 1-menthol, flavouring) macrogol (400) (synonym: polyethylene glycol (400), solubilizer), polysorbate 20 (surfactant)
Dosage twice a day 0.5 mg, administration protocol 28 days of treatment and 14 days of non-treatment, long-term treatment until disease progression

thyroid cancer = assay: Clinical trial in patients with thyroid cancer
Method: Patient 2006, clinical study 14856, person, papillary thyroid cancer stage IV, progressive disease on study enrollment, systemic pre-therapies with 17-AAG, Sutent, sorafenib, erlotinib and temsirolimus
Patient 1030, clinical study 14484, person, thyroid cancer stage IV, progressive disease on study enrollment, systemic pre-therapies with Adriamycin and cisplatin/carboplatin, carboplatin and Taxol, Nexavar, Sutent
Patient 2006: oral solution, ingredients micronized BAY 1000394 (0.2 mg/ml), levomenthol (synonym: 1-menthol, flavouring) macrogol (400) (synonym: polyethylene glycol (400), solubilizer), polysorbate 20 (surfactant)
Patient 1030: tablet, ingredients BAY 1000394, micronized, 5 mg/tablet, granulated mannitol (filler), microcrystalline cellulose (filler), croscarmellose (disintegrant), magnesium stearate (additive for pressing), red lacquer (coating)
Patient 2006: dosage twice a day 0.3 mg, administration protocol 28 days of treatment and 14 days of non-treatment, long-term treatment until disease progression
Patient 1030: dosage 5 mg in the morning, 10 mg in the evening, administration protocol 3 days of treatment and 4 days of non-treatment, long-term treatment until disease progression

[3] = patient 1010, epithelioid mesothelioma, twice a day 1.2 mg
[4] = patient 1016, epithelioid mesothelioma stage IV, twice a day 4.8 mg
[5] = patient 1023, pleuramesothelioma stage IV, twice a day 9.6 mg
[6] = patient 1024, pleuramesothelioma stage IV, twice a day 9.6 mg
[7] = patient 1026, cholangiocellular carcinoma stage IV, tablet, twice a day 5 mg
[8] = patient 3002, squamous cell carcinoma of the oesophagus stage IV, oral solution, twice a day 0.5 mg
[9] = patient 1030, thyroid cancer stage IV, tablet, 5 mg in the morning, 10 mg in the evening, 3 days of treatment and 4 days of non-treatment
[10] = patient 2006, papillary thyroid cancer stage IV, oral solution, twice a day 0.3 mg, 28 days of treatment and 14 days of non-treatment

C[C@@H](O)[C@@H](C)Oc1nc(Nc2ccc(S(=N)(=O)C3CC3)cc2)ncc1C(F)(F)F (mixture of isomers) [Compound A, (RS)—S-cyclopropyl-S-(4-{[4-{[(1R,2R)-2-hydroxy-1-methylpropyl]oxy}-5-(trifluoromethyl)pyrimidin-2-yl]amino}phenyl)sulphoximide]
treatment outcome in mesothelioma patients (mesotheliomas; daily dose of 2.4 mg, 9.6 mg and 19.2 mg divided into two identical dosage units): Disease stabilization | treatment outcome in a patient suffering from cholangiocellular carcinoma ([1]; daily dose of 10 mg divided into two identical dosage units): Disease stabilization | treatment outcome in a patient suffering from squamous cell carcinoma of the oesophagus ([2]; daily dose of 1 mg divided into two identical dosage units): Disease stabilization | treatment outcome in thyroid cancer patients (thyroid cancer; daily dose of 0.6 mg divided into two identical dosage units, 28 days of treatment and 14 days of non-treatment): Disease stabilization | treatment outcome in thyroid cancer patients (thyroid cancer; daily dose of 15 mg (5 mg in the morning, 10 mg in the evening), 3 days of treatment and 4 days of non-treatment): Disease stabilization

C[C@@H](O)[C@@H](C)Oc1nc(Nc2ccc([S@](=N)(=O)C3CC3)cc2)ncc1C(F)(F)F [BAY 1000394, (R)—S-cyclopropyl-S-(4-{[4-{[(1R,2R)-2-hydroxy-1-methylpropyl]oxy}-5-(trifluoromethyl)pyrimidin-2-yl]amino}phenyl)sulphoximide]
duration of treatment (until disease progression) (mesotheliomas; [3]): about 4 months | tumour response according to RECIST 1.1 (mesotheliomas; [3]): disease stabilization | duration of treatment (until disease progression) (mesotheliomas; [4]): more than 3 months | tumour response according to RECIST 1.1 (mesotheliomas; [4]): disease stabilization | duration of treatment (until disease progression) (mesotheliomas; [5]): about 2 months | tumour response according to RECIST 1.1 (mesotheliomas; [5]): disease stabilization | duration of treatment (until disease progression) (mesotheliomas; [6]): about 2 months | tumour response according to RECIST 1.1 (mesotheliomas; [6]): disease stabilization | duration of treatment (until disease progression) [1, 7]: more than 4 months | tumour response according to RECIST 1.1 [1, 7]: disease stabilization | duration of treatment (until disease progression) [2, 8]: more than 2 months | tumour response according to RECIST 1.1 [2, 8]: disease stabilization | duration of treatment (until disease progression) (thyroid cancer; [9]): more than 3 months | tumour response according to RECIST 1.1 (thyroid cancer; [9]): disease stabilization | duration of treatment (until disease progression) (thyroid cancer; [10]): about 2 months | tumour response according to RECIST 1.1 (thyroid cancer; [10]): disease stabilization
